A word on the microsomal CLint: it is a measure of how fast metabolising enzymes remove a compound, apart from limits set by blood flow. Usually EC50 stands for the concentration at which the effect is half-maximal.

The results in this text go back to patent US20240316020A1, “Novel Pyridine Compounds” (ICAGEN, LLC, priority 2021, published 2024).

A short description of data set [1]: Human liver microsomal clearance. Type of data set: in vitro ADME. Conditions: both sexes, liver microsomes, Table B, 0.5 μM compound, 0.25 mg/mL microsomes, NADPH, 37° C., read-out: Human liver microsomal intrinsic clearance CLint. The method, then:
Pooled mixed gender human liver microsomes were purchased from BioIVT at a concentration of 20 mg protein/mL and stored at −80° C. Incubations were conducted in V-bottomed 350 μL polypropylene 96-well plates. Compounds were diluted in phosphate buffer (final concentrations 0.5 μM compound, 0.5% DMSO) and mixed with diluted liver microsomes (fc 0.25 mg/mL). This mixture was aliquoted onto the assay plate (six wells per compound) and pre-warmed at 37° C. for ten minutes. Addition of NADPH (fc 0.5 mM, final incubation volume 100 μL) to each well started the time course. Reactions were stopped at 0.5, 3, 5, 10, 20 & 30 minutes by addition of 150 μL acetonitrile containing internal standard (IS; 0.125 μg/mL daidzein) and stopped samples were removed to a clean polypropylene plate. At the end of the assay the plate was refrigerated for an hour and then centrifuged at 3000 rpm for 10 minutes at 4° C. A sample of the supernatant was removed to a fresh plate and diluted 10-fold with 50:50 acetonitrile:water, then heat sealed. Analysis was by liquid chromatography coupled with tandem mass spectrometry (LC-MS/MS) for analyte and IS levels. Ratios of the analyte and IS peak areas were generated for results calculation (IS ratio). Dextromethorphan and verapamil were included in each experiment as controls for high clearance compounds. IS ratio data were converted into natural log values which were plotted against time and a linear regression fit applied. The slope of the line was returned and converted into the elimination constant (kel) by multiplying by −1. The elimination constant was used to calculate the in vitro CLint: in vitro CLint (μL/min/mg protein) is kel* (1000/protein conc in mg/mL).

Another data set concerns the target human Kv7.2 (Homo sapiens (Human), UniProt O43526). Briefly: SyncroPatch 384 electrophysiology, CHO cells stably expressing human Kv7.2. Type of data set: cell-based. On the procedure: (§1) The potency of Kv7 potentiators was determined using the SyncroPatch 384 (Nanion) high throughput electrophysiology platform.
(§2) CHO cells stably expressing either human Kv7.2, Kv7.4 or Kv7.5/7.3 under a constitutive CMV promoter were used for these studies. Cells were maintained in F12 Hams+1 mM L-glutamine (Hyclone) supplemented with 10% FBS (Sigma), 0.3×NEAA (Non-essential Gamino-acids) and 400 ug/ml G418 at 37° C. in 5% CO2. Cells were cultured in T-225 flasks (Nunc) for 2-3 days to reach 85-95% confluence prior to electrophysiological recording.
(§3) Earle's balanced salt solution (in mM): 135 NaCl, 5.4 KCl, 5 Glucose, 2 CaCl2, 1 MgCl2, 5 HEPES, pH 7.4. Seal enhancer solution (in mM): 90 NaCl, 3 KCl, 35 CaCl2, 10 MgCl2, 10 HEPES, pH 7.4. Extracellular recording solution (in mM): 71 NaCl, 70 NMDG, 13 KCl, 5 Glucose, 2 CaCl2, 1 MgCl2, 10 HEPES, pH 7.4. Intracellular recording solution (in mM): 130 KF, 20 KCl, 4 EGTA, 10 HEPES, 2 EDTA, 0.01 Escin, pH 7.2.
(§4) Cells were harvested for electrophysiological recording upon reaching appropriate confluence. Cells were first washed in DPBS (Hyclone, Cat #SH30028.03) and then 2 ml of Accutase (MP Biomedicals #1000449) was added at 28° C. until ˜90% of cells were suspended. F12 HAM's media+1 mM L-glutamine (Hyclone, SH30026.02) was then added to the flask to dilute the accutase. Cells were then triturated until a single cell suspension was achieved, a cell count was performed, and cells were centrifuged for 2 min. at 1,000 rpm. Media was then aspirated, and cells were resuspended in Earle's balanced salt solution to a concentration of 0.75×10^6 cells/ml and allowed to recover for 25 min at 10° C.
(§5) At the beginning of each assay, 20 μl of cell suspension was dispensed into each well of a multi-hole 384-well SyncroPatch chip by the onboard pipettor. Cell sealing was initiated, and seal enhancer solution was added to facilitate seal formation. Upon completion of sealing, cells were washed 3 times with extracellular recording solution and the assay voltage protocol was started. Human Kv7.2, Kv7.4 or Kv7.5/7.3 channels were evaluated using a voltage protocol in which cells were voltage-clamped at a holding potential of −60 mV. Potassium currents were continuously activated with a series of three voltage steps to −30 mV for 3 seconds, 40 mV for 1 second and −90 mV for 4 seconds with 12 seconds between successive voltage sweeps. Potassium currents were measured from the −90 mV repolarizing step. Baseline current was assessed for 3.5 minutes prior to the addition of 5.6 μM zinc pyrithione (1 μM for Kv7.4). Kv7.2, Kv7.4 or Kv7.5/7.3 current in the presence of zinc pyrithione was acquired over five minutes to allow channels to reach steady state activity prior to addition of test agents. Channel activity was monitored for three minutes preceding the addition of 30 μM ML-213 (3 minutes) to achieve maximum activation.
(§6) Data were collected on the SyncroPatch platform using PatchControl software (Nanion) and processed and analyzed using DataControl Software (Nanion). Percent activation was calculated from potassium current as follows: The average current for the 5 sweeps in the presence of zinc pyrithione immediately preceding test agent addition was taken as the ‘control’ data. Likewise, the average potassium current in the presence of test agents 5 sweeps immediately preceding addition of 30 μM ML-213 was determined for ‘drug’ data. The average potassium current 5 sweeps immediately prior to addition of 150 mM TEA+10 μM XE-991 was determined for ‘max activation’ data while average currents from 5 sweeps immediately following addition of TEA was determined for ‘max inhibition’ data. Percent activation for each of the 384-wells of a sealchip was calculated as ((‘drug’−‘max inhibition’)/(‘max activation’−‘max inhibition’))*100 with Pipeline Pilot (Accelrys). […]
For orientation: The patch-clamp technique gives a direct electrical read-out from membranes.

Another data set deals with human Kv7.5/7.3 (Homo sapiens (Human), UniProt O43525+Q9NR82). The experiment in a line: SyncroPatch 384 electrophysiology, CHO cells stably expressing human Kv7.5/7.3. Type of data set: cell-based. Conditions: Table A; for Kv7.5/7.3/Kv7.2 selectivity ratio: Kv7.5/7.3 EC50 over Kv7.2 EC50. The method, then: as §1, §2, §3, §4, §5, §6
[2] abbreviates: Table 1, CHO cells, potassium current at -90 mV step, in presence of zinc pyrithione.

human Kv7.5/7.3, sequence (Q9NR82 whole entry): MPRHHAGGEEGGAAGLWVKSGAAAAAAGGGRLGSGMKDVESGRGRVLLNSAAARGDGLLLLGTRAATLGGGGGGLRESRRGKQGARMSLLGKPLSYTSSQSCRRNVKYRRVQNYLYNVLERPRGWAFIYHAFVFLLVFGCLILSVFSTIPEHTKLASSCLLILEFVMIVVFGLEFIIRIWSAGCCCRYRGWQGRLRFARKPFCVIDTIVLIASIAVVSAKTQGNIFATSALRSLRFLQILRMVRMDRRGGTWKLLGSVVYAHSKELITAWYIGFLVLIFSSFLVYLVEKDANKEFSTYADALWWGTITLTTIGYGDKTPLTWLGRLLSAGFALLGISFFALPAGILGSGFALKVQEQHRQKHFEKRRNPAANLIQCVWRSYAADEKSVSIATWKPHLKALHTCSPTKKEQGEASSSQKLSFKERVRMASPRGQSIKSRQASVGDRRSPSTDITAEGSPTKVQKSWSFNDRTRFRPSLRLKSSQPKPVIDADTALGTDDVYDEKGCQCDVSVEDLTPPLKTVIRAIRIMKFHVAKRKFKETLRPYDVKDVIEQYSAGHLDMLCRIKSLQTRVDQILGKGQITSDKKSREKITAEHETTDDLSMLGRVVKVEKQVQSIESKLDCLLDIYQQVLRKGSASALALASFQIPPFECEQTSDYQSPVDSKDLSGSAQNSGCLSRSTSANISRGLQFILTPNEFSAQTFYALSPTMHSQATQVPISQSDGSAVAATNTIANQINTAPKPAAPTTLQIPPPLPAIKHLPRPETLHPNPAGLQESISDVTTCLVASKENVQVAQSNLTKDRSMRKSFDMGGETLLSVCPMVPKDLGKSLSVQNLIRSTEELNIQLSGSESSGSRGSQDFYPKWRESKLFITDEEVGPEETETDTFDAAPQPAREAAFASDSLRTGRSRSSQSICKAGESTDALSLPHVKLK
human Kv7.5/7.3, sequence (O43525 whole entry): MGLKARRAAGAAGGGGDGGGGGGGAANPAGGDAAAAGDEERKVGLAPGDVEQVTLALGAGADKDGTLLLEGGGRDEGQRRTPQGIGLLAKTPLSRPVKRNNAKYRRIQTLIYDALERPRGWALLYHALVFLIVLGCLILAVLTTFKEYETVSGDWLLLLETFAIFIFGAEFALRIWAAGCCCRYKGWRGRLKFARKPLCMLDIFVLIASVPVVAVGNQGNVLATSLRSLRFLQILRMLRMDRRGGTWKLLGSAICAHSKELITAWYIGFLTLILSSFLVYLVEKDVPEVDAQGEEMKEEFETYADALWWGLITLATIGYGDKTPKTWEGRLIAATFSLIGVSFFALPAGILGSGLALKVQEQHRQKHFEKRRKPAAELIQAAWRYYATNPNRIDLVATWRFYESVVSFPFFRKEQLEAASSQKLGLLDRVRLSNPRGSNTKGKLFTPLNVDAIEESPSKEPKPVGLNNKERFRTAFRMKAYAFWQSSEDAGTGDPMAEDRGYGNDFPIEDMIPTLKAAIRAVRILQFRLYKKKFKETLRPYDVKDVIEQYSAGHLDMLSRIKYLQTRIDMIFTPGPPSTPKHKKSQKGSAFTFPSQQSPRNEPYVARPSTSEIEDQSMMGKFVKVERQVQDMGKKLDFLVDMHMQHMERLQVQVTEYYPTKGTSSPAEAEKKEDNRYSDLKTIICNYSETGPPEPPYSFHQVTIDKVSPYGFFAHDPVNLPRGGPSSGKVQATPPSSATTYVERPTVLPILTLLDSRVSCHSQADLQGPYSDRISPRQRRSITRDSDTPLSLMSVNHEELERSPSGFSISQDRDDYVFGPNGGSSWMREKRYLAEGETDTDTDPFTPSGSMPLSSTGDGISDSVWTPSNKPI
human Kv7.2, sequence (O43526 whole entry): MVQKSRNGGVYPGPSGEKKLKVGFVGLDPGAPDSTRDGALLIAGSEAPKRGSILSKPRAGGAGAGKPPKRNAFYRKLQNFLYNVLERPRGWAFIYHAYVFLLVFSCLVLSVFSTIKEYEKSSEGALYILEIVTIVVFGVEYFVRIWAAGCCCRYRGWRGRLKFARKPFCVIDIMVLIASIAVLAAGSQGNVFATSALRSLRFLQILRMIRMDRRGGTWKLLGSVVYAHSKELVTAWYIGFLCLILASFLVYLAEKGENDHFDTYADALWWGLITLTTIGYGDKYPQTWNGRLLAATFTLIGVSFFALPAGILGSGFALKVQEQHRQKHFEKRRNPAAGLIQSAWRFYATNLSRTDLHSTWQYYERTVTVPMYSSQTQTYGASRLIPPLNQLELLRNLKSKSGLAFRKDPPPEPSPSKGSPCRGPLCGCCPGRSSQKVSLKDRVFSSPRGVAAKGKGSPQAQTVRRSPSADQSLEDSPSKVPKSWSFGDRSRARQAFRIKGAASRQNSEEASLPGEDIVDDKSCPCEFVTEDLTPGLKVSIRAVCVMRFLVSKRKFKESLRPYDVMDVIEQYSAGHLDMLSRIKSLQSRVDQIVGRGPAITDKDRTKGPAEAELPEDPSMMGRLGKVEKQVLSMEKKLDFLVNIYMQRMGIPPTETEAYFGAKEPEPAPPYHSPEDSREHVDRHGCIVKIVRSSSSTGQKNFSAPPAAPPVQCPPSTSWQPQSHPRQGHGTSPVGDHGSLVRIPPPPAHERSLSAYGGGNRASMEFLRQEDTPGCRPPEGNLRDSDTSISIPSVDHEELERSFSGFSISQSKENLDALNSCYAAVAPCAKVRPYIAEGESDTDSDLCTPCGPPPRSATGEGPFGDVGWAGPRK

Consider `O=C(NCc1ccnc(OC(F)F)c1)N[C@H]1CC2(CCC2)[C@H]1O` (racemic) [Example 26, 1-[[2-(difluoromethoxy)pyridin-4-yl]methyl]-3-[rac-(2R,3S)-3-hydroxyspiro[3.3]heptant-2-yl]urea], for which the microsomal CLint at 0.5 μM in data set [1] was found to be 11.5 µL/min/mg. The EC50 on human Kv7.2 (setting [2]) was determined as 440 nM.

`O=C(NCc1ccnc(-n2cccn2)c1)NC1CCOC2(CCCC2)C1` (stereo not shown) [Example 2, 1-(6-oxaspiro[4.5]decan-9-yl)-3-[(2-pyrazol-1-ylpyridin-4-yl)methyl]urea]: the EC50 on human Kv7.2 (setting [2]) is 8490 nM.

For `O=C(NCc1ccnc(OC(F)F)c1)NC1COC2(CCCC2)C1` (stereo not shown) [Example 3, 1-[[2-(difluoromethoxy)pyridin-4-yl]methyl]-3-(1-oxaspiro[4.4]nonan-3-yl)urea], the EC50 at human Kv7.2 (setting [2]) is 500 nM.

In the case of `O=C(NCc1ccnc(OC(F)F)c1)NC1CC2(CCC2)C1` [Example 4, 1-[[2-(difluoromethoxy)pyridin-4-yl]methyl]-3-spiro[3.3]heptan-2-ylurea], the EC50 at human Kv7.2 (setting [2]) worked out at 20 nM.

Regarding `CC(F)(F)COc1cc(CNC(=O)NC2CC3(CCC3)C2)ccn1` [Example 5, 1-[[2-(2,2-difluoropropoxy)pyridin-4-yl]methyl]-3-spiro[3.3]heptan-2-ylurea], the EC50 at human Kv7.2 (setting [2]) amounted to 20 nM.

`CC(F)COc1cc(CNC(=O)NC2CC3(CCC3)C2)ccn1` (stereo not shown) [Example 6, 1-[[2-(2-fluoropropoxy)pyridin-4-yl]methyl]-3-spiro[3.3]heptan-2-ylurea]: on human Kv7.2 (setting [2]), the EC50 is 60 nM.

For `O=C(NCc1ccnc(OCC2CC2)c1)NC1CC2(CCC2)C1` [Example 7, 1-[[2-(cyclopropylmethoxy)pyridin-4-yl]methyl]-3-spiro[3.3]heptan-2-ylurea], the EC50 on human Kv7.2 (setting [2]) was found to be 50 nM.

On to `O=C(NCc1ccnc(OC(F)F)c1)NC1CC2(CC2)C1` [Example 8, 1-[[2-(difluoromethoxy)pyridin-4-yl]methyl]-3-spiro[2.3]hexan-5-ylurea], for which, in data set [1], the microsomal CLint at 0.5 μM turned out to be 5.2 µL/min/mg. Moreover, the concentration giving a half-maximal response (EC50) on human Kv7.2 (setting [2]) was determined as 60 nM.

As to `CC(F)(F)c1cc(CNC(=O)NC2CC3(CCC3)C2)ccn1` [Example 9, 1-[[2-(1,1-difluoroethyl)pyridin-4-yl]methyl]-3-spiro[3.3]heptan-2-ylurea], the intrinsic clearance (microsomal CLint) at 0.5 μM in data set [1] amounted to 17.6 µL/min/mg. Moreover, the EC50 on human Kv7.2 (setting [2]) was 190 nM.

Consider `O=C(NCc1ccnc(C(F)(F)F)c1)NC1CC2(CCC2)C1` [Example 10], for which the EC50 on human Kv7.2 (setting [2]) is 190 nM.

In the case of `O=C(NCc1ccnc(OC(F)F)c1)NC1CCC2(CCC2)C1` (stereo not shown) [Example 11, 1-[[2-(difluoromethoxy)pyridin-4-yl]methyl]-3-spiro[3.4]octan-7-ylurea], on human Kv7.2 (setting [2]), the EC50 stood at 20 nM.

On to `O=C(NCc1ccnc(OCC(F)(F)F)c1)NC1CC2(CC2)C1` [Example 12, 1-spiro[2.3]hexan-5-yl-3-[[2-(2,2,2-trifluoroethoxy)pyridin-4-yl]methyl]urea], for which, in data set [1], the microsomal CLint at 0.5 μM is 15.2 µL/min/mg. For the same molecule, on human Kv7.2 (setting [2]), the EC50 was 170 nM.

As to `O=C(NC1CC2(CCC2)C1)NC(CO)c1ccnc(OCC(F)(F)F)c1` (stereo not shown) [Example 13, 1-[2-hydroxy-1-[2-(2,2,2-trifluoroethoxy)pyridin-4-yl]ethyl]-3-spiro[3.3]heptan-2-ylurea], the EC50 on human Kv7.2 (setting [2]) is 70 nM.

As for `O=C(NCc1ccnc(OC(F)F)c1)NC1CC2(C1)CC2(F)F` (stereo not shown) [Example 15, 1-[[2-(difluoromethoxy)pyridin-4-yl]methyl]-3-(2,2-difluorospiro[2.3]hexan-5-yl)urea], the microsomal CLint at 0.5 μM in data set [1] worked out at 11.3 µL/min/mg. In addition, the EC50 on human Kv7.2 (setting [2]) stood at 3100 nM.

Take `O=C(NCc1ccnc(OC(F)F)c1)NC1(CO)CC2(CCC2)C1` [Example 18, 1-[[2-(difluoromethoxy)pyridin-4-yl]methyl]-3-[2-(hydroxymethyl)spiro[3.3]heptan-2-yl]urea]: the EC50 at human Kv7.2 (setting [2]) is 410 nM.

In the case of `O=C(NCc1ccnc(OC(F)F)c1)NC1CCC2(C1)CC2(F)F` (stereo not shown) [Example 19, 1-[[2-(difluoromethoxy)pyridin-4-yl]methyl]-3-(2,2-difluorospiro[2.4]heptan-6-yl)urea], the EC50 at human Kv7.5/7.3 is over 30000 nM; on human Kv7.2 (setting [2]) it was 350 nM; on human Kv7.2 (Table A), 350 nM. For the same molecule, the Kv7.5/7.3/Kv7.2 selectivity ratio at human Kv7.5/7.3 was over 86.

As for `O=C(NCc1ccnc(OC(F)F)c1)NC1COC12CCCCC2` (stereo not shown) [Example 20, 1-[[2-(difluoromethoxy)pyridin-4-yl]methyl]-3-(1-oxaspiro[3.5]nonan-3-yl)urea], the EC50 on human Kv7.2 (setting [2]) turned out to be 8430 nM.

On to `O=C(NCc1ccnc(OC(F)F)c1)NC1CC12CCC2` (stereo not shown) [Example 23, 1-[[2-(difluoromethoxy)pyridin-4-yl]methyl]-3-spiro[2.3]hexan-2-ylurea], for which the EC50 is over 30000 nM at human Kv7.5/7.3, 1940 nM on human Kv7.2 (setting [2]) and 1940 nM at human Kv7.2 (Table A). Further, the Kv7.5/7.3/Kv7.2 selectivity ratio at human Kv7.5/7.3 was over 15.

Consider `O=C(NCc1ccnc(OC(F)F)c1)NC1C(F)(F)C12CCC2` (stereo not shown) [Example 24, 1-[[2-(difluoromethoxy)pyridin-4-yl]methyl]-3-(2,2-difluorospiro[2.3]hexan-1-yl)urea], for which the values for the EC50 at human Kv7.5/7.3, at human Kv7.2 (setting [2]) and at human Kv7.2 (Table A) were over 30000 nM, 340 nM and 340 nM, respectively. For the same molecule, the Kv7.5/7.3/Kv7.2 selectivity ratio at human Kv7.5/7.3 is given as over 89.

For the molecule `O=C(NCc1ccnc(OC(F)F)c1)N[C@@H]1CC2(CCC2)[C@@H]1O` [Example 28, 1-[[2-(difluoromethoxy)pyridin-4-yl]methyl]-3-[(2R,3S)-3-hydroxyspiro[3.3]heptan-2-yl]urea], the results for the EC50 at human Kv7.5/7.3, at human Kv7.2 (setting [2]) and at human Kv7.2 (Table A) were over 30000 nM, 500 nM and 500 nM, respectively. In addition, the Kv7.5/7.3/Kv7.2 selectivity ratio at human Kv7.5/7.3 is given as over 60.

On to `O=C(NCc1ccnc(OCC(F)CF)c1)NC1CC2(CCC2)C1` (stereo not shown) [Example 29, 1-[[2-(2,3-difluoropropoxy)pyridin-4-yl]methyl]-3-spiro[3.3]heptan-2-ylurea], for which the 50% effective concentration (EC50) on human Kv7.2 (setting [2]) came to 100 nM.

Take `O=C(NCc1ccnc(OC(F)F)c1)NC1COC2(CCCCC2)C1` (stereo not shown) [Example 30, 1-[[2-(difluoromethoxy)pyridin-4-yl]methyl]-3-(1-oxaspiro[4.5]decan-3-yl)urea]: the EC50 on human Kv7.2 (setting [2]) worked out at 450 nM.

As for `O=C(NCc1ccnc(OC(F)F)c1)NC1CCC2(CCC2)OC1` (stereo not shown) [Example 32, 1-[[2-(difluoromethoxy)pyridin-4-yl]methyl]-3-(5-oxaspiro[3.5]nonan-7-yl)urea], at human Kv7.2 (setting [2]), the EC50 was 550 nM.
